Results: patent US20240216347A1, “BEZUCLASTINIB FORMULATIONS” (Cogent Biosciences, Inc., priority 2022, published 2024)
≈ marks a conversion by molar mass, not a printed value.

Legend:
[1] = Non-sink dissolution test in simulated intestinal fluid, no gastric transfer; type: physicochemical; settings: SIF 0.5% bile salt, pH 6.5, 37° C., 1 mg API per mL
Method: Non-sink dissolution testing was used to determine the kinetic solubility as well as the extent and duration of supersaturation of amorphous dispersions. Spray dried samples were examined under non sink dissolution testing conditions in FIGS. 2-5. Non sink testing was performed with and without a gastric transfer at various bile salt concentrations in biorelevant media including simulated intestinal fluid at pH 6.5 and FaSSIF at pH 6.5. Total drug and free drug concentration were determined as described in Example 2.
Samples were loaded at a concentration of 1 mg API per mL of media. The SDD's tested were 10% and 20% drug loading HPMCAS-L SDD, 20% HPMCAS-H and 20% HPMCAS-L with 5 mg/mL HPMCAS-H added.

[2] = Pka of Bezuclastinib (Table 1); type: physicochemical; settings: Weak Base
From the text: (§1) Bezuclastinib has a high melting point and is insoluble in aqueous and most organic solvents. No suitable salt or co-crystal was found.

[3] = LogD of Bezuclastinib (Table 1); type: physicochemical
From the text: as §1

[4] = Aqueous solubility of Bezuclastinib; type: physicochemical; settings: aqueous buffer
Method: Compound (I) was first disclosed in U.S. Pat. No. 9,676,748 B2 and U.S. Pat. No. 10,301,280 B2. In the almost 10 years since, Compound (I) has proven to be difficult to prepare in a tablet form suitable for commercial development. In particular, Compound (I) has a very high melting point (>365° C.) and is practically insoluble in aqueous conditions (0.32 ug/mL at pH 7.0), and most organic solvents. In addition, no suitable salt or co-crystal has been found for of Compound (I), which itself readily crystalizes when forming tablets. Finally, existing tablet forms of Compound (I) allowed a relatively small proportion of API to be loaded into the tablet form, necessitating repeated dosing of many tablets, potentially jeopardizing patient compliance.
as §1

[5] = Solubility in organic solvents; type: physicochemical; settings: organic solvent or mixture, thermodynamic from solid, 21° C., read-out: free drug concentration (solubility)
Method: (Table 3). A saturated suspension was prepared in each solvent and the samples were stirred overnight using a magnetic stirrer. The free drug concentration was determined by subjecting the samples to 7 minutes in an ultracentrifuge at 470,000× gravity. A 100 μL aliquot was withdrawn and diluted in 5× in DMSO and Methanol and tested by the HPLC method. Three (3) replicates were performed in each solvent. Bezuclastinib was poorly soluble (free drug concentration <5.0 mg/mL), other than DMSO (free drug concentration <20 mg/mL).

[6] = Influence of pH on solubility; type: physicochemical; settings: Simulated Intestinal Fluid with 0.5% bile salts, fassgf or other biorelevant, thermodynamic from solid; SIF with 0.5% bile salts, 37° C., pH 4.0, 5.5 and 6.0; read-out: free drug concentration (solubility)
Method: A saturated bezuclastinib suspension was prepared in each media and the samples were stirred overnight using a magnetic stirrer. The total drug concentration was determined by subjecting the samples to 3 minutes in a microcentrifuge at 19,500× gravity. The free drug concentration was determined by subjecting the samples to 7 minutes in an ultracentrifuge at 470,000× gravity. A 100 μL aliquot was withdrawn and diluted in 5× in DMSO and Methanol and tested by the HPLC method. Six (6) replicates were performed in each media. In all conditions, bezuclastinib was poorly soluble (free drug concentration <20 μg/mL).

[7] = Solubility in biorelevant media; type: physicochemical; settings: fassgf or other biorelevant, thermodynamic from solid; all biorelevant media (0.01N HCl, FaSSIF, SIF, FaSSGF), 37° C.; read-out: free drug concentration (solubility)
Method: Biorelevant media included 0.01N hydrochloric acid, Fast State Simulated Intestinal Fluid (FaSSIF) with and without bile salts, Simulated Intestinal Fluid (SIF) with various concentrations of bile salts (0, 0.5% and 1%) and Fasted State Simulated Gastric Fluid (FaSSGF). A saturated suspension was prepared in each media and the samples were stirred overnight using a magnetic stirrer. The free drug concentration was determined by subjecting the samples to 7 minutes in an ultracentrifuge at 470,000× gravity. A 100 μL aliquot was withdrawn and diluted in 5× in DMSO and Methanol and tested by the HPLC method described in Table 2. Six (6) replicates were performed in each media. In all cases, bezuclastinib was practically insoluble (free drug concentration ≤1.2 μg/mL).

[8] = human, in vivo, po
From the text: (§2) This Example summarizes a single-center, open-label, 2-period, randomized, crossover study of Formulations A and B of bezuclastinib at single ascending dose levels in healthy adult subjects to assess pharmacokinetics and relative bioavailability. Subjects were randomized to receive either a single dose of Formulation A fasted, or a single dose of Formulation B fasted. After a washout period of 21 days, subjects were then crossed over to receive the other formulation. […] Blood draws were taken pre-dose, and 0.5, 1, 2, 3, 4, 6, 8, 12, 16, 24, 48, 72, 96, 120, 144, 168, 192, and 336 h post-dose.

clinical = settings: human, in vivo, po
From the text: as §2

[9] = system: cells with activating c-kit mutations in the catalytic region; settings: Ma et al., 2002; cited from earlier work

Row | Microcentrifuge Assay @ 5 min (total drug) ([1]; 5 min) [µg/mL] | Ultracentrifuge Assay @ 5 min (free drug) ([1]; 5 min) [µg/mL] | Microcentrifuge Assay @ 60 min (total drug) ([1]; 60 min) [µg/mL] | Ultracentrifuge Assay @ 60 min (free drug) ([1]; 60 min) [µg/mL] | Microcentrifuge Assay @ 6 hrs (total drug) ([1]; 6 hrs) [µg/mL] | Ultracentrifuge Assay @ 6 hrs (free drug) ([1]; 6 hrs) [µg/mL] | pKa [2] | logD [3] | solubility ([4]; aqueous conditions, pH 7.0, read-out: solubility in aqueous conditions) [µg/mL] | solubility ([4]; aqueous medium, pH = 7.0, read-out: Aqueous solubility) [µg/mL] | solubility ([5]; DMSO) [µg/mL] | solubility ([5]; organic solvents of Table 3 other than DMSO) [µg/mL] | solubility [6] [µg/mL] | solubility [7] [µg/mL] | median time to maximum concentration [8] [h] | half-life (clinical) [h] | Compound | inhibition of cells with c-kit mutations in the catalytic region [9]
1 | 2.0 | 1.5 | 3.4 | 1.6 | 2.0 | 1.7 | 2.86 | 3.46 | 0.32 (≈ 0.966 µM) | 0.31 (≈ 0.935 µM) | < 20000 | < 5000 | < 20 | ≤ 1.2 | 12 to 16 | 48.6 to 71.4 | Cc1n[nH]c(C(=O)Nc2cnc3[nH]c(-c4ccccc4)cc3c2)c1C [Bezuclastinib, 3,4-dimethyl-N-(2-phenyl-1H-pyrrolo[2,3-b]pyridin-5-yl)-1H-pyrazole-5-carboxamide] | –
2 | – | – | – | – | – | – | – | – | – | – | – | – | – | – | – | – | Cc1ccc(NC(=O)c2ccc(CN3CCN(C)CC3)cc2)cc1Nc1nccc(-c2cccnc2)n1 [STI571] | did not inhibit the cells
